{"source": "paper PMC4433269", "about": "(PLoS ONE, 2015)", "key": {"P-glycoprotein [1]": {"system": "P-glycoprotein", "experiment": "Effect on the level of the P-gp substrate digoxin in rat gut sacs", "type": "in vitro ADME", "experimental": "(§1) All of the rats were starved for 24 h before the experiments. The rats were sacrificed by decapitation, and the duodenum, jejunum, ileum and colon were immediately removed and placed in a 37°C K-R solution that was oxygenated (O2/CO2, 95%:5%). After washing in order with K-R solution at room temperature, the four intestinal segments were everted on a glass rod (3 mm in diameter) with one end of each clamped before filling with fresh oxygenated K-R solution. The intestines were then sealed with braided sutures. Each sac was placed in a 10 mL test tube that contained 8 mL of oxygenated drug-containing K-R solution at 37°C. Then, 0.1 mL of serosal fluid was collected at the appropriate time points, and an equal volume of K-R solution was added to the serosal side. Finally, the solution in the sacs was collected to accurately calculate the volume, and each sac was accurately weighed before and after being cut open. The area of each sac was measured. All of the samples were analyzed using the UPLC-MS method. After analysis, the amounts (ng/mm^2) of absorbed aconitine and digoxin were calculated. Each experiment was repeated five times, and the presented data represent the means ± S.D. This study was conducted in accordance with the internationally accepted principles for laboratory animal use and care as found in the European Community guidelines.\nThe flow rate was 0.3 mL/min."}, "everted rat gut sacs [2]": {"system": "everted rat gut sacs", "settings": "for ER(P2/P0): Papp with 6-gingerol / Papp alone; for ER(P1/P0): Papp with Rhizoma Zingiberis extract / Papp alone", "experimental": "as §1\n(§2) The analytical UPLC-MS system consisted of an Acquity Ultra Performance LC with a Xevo TQ mass spectrometer as the detector, and it was equipped with an electrospray source in the positive ion mode (Waters Co., USA). Separation was performed on a BEH Extend-C18 column (2.1*50 mm, 1.7 μm, Agilent Co., USA). The mobile phase was composed of methanol mixed with acetonitrile in equal volumes (A) and an aqueous solution of ammonium acetate at pH 10.5 (B). The gradient elution conditions were as follows: 0–1 min 10–43% A, 2–4.5 min 55–100% A, and 5–7 min 10% A. The flow rate was 0.3 mL/min. The column temperature was 35°C throughout the entire detection process. All of the samples were freeze-dried after being collected from the serosal side, and the residue was dissolved with 0.1 mL of the mobile phase (A) prior to injecting 5 μL of each sample into the UPLC system.\nTo study the effect of the Rhizoma Zingiberis extract on the concentration of aconitine in the rat gut sacs, the apparent […] coefficient (Papp) was calculated using the equation Papp = [V/(A·C0)]·dC/dt, where V represents the fluid volume in the serosal side, A represents the superficial area of the gut sac, and C0 represents the initial concentration of aconitine outside the gut sac.\nThe experiment described in this section was conducted under the same conditions as decribed in the “Effect of the Rhizoma Zingiberis extract on the level of aconitine in the rat gut sacs” section."}, "everted rat gut sacs [3]": {"system": "everted rat gut sacs", "experiment": "Viability of the everted rat gut sacs (serosal/mucosal glucose ratio)", "settings": "incubation up to 120 min; Fig 5", "procedure": "To verify the integrity and viability of the gut sacs, glucose was collected from both the serosal side and the mucosal side of the rat gut sacs at a fixed time, and glucose was detected using a Waters UPLC/MS (Waters Co., USA), which is more accurate and sensitive than a UV-Vis detector. Separation was performed on a Hypersil NH column (4.6*150 mm, 25 μm, Elite Co., China). Although only glucose was available for detection in this part, the column separation was essential because large amounts of inorganic salts were present in the K-R nutrient solution. A mobile phase composed of 80% acetonitrile (A) and 20% distilled water (B) was used for isocratic elution. The retention time for glucose was 7.37 min. The peak area ratio of glucose in the serosal side to that in the mucosal side was used to validate the viability of the everted rat gut sacs."}, "[4]": {"type": "physicochemical", "settings": "for Stability RSD%: 0 h, 24 h and 48 h; for Stability of QC samples: RSD % less than 15%", "experimental": "The selectivity was examined by detecting blank K-R nutrient solutions, which were useful only if no peaks appeared at the retention times of aconitine and digoxin. The inter-day and intra-day accuracies were evaluated by calculating the percent relative standard deviation (RSD %) of the concentration of the quality control (QC) samples on the same day or over three days. The matrix effect was determined by comparing the concentrations of samples with standard solution added into a blank K-R solution after extraction with QC samples. The extraction recovery was calculated by comparing the concentration of normally extracted samples with that of the QC samples. The stability was evaluated by calculating the RSD % of the concentration of the quality control (QC) samples at 0 h, 24 h and 48 h. The accuracy, matrix effect, extraction recovery and stability were all replicated by five QC samples at three levels. The LOD and LLOQ were the concentrations of QC samples with peak signal-to-noise ratios (S/N) of at least 3 and 10, respectively."}, "[5]": {"experiment": "Solubility in tested solvents during sample processing", "settings": "tested solvents: methanol, ethanol, acetonitrile, distilled water, DMSO", "experimental": "Because there were numerous inorganic salts that were harmful to the mass spectrometer in the everted sac samples, dechloridation was the first consideration when we developed the processing method. We applied lyophilization as the first step for prolonging the resting period of the samples to avoid the decomposition of unstable components. […] Therefore, the second step consisted of dissolving aconitine in methanol. […] The third step consisted of centrifuging, and 5 μL of the supernatant liquid was injected into the UPLC/MS."}, "P-glycoprotein [6]": {"system": "P-glycoprotein", "parameters": "method as in earlier work", "settings": "Caco-2 cell culture model; cited from earlier work"}, "everted rat gut sacs [7]": {"system": "everted rat gut sacs", "type": "in vitro ADME", "settings": "120 min", "experimental": "as §1, §2\nThe intestinal kinetic absorptive behavior of aconitine was investigated in the gut sac model cultured in K-R nutrient solution for 120 min. The accumulative absorbed dose (Q) of aconitine was calculated for use in zero-level, primary and Higuchi equation fitting. Then, the determination coefficient (R^2) of the equation was set as the evaluation criterion for the quality of the fit. […] The slope of the fitting equation represents the absorption rate constant (ka)."}, "P-glycoprotein [8]": {"system": "P-glycoprotein", "settings": "deduced from verapamil effect in rat gut sacs", "experimental": "as §1"}, "[9]": {"settings": "Middle concentration QC samples"}}, "note": "Where two headings read alike, the source gives them in different places."}
{"molecule": "CCCCC[C@H](O)CC(=O)CCc1ccc(O)c(OC)c1", "note": "[6-gingerol]", "values": [{"measurement": "Effect on digoxin content in gut sacs", "setting": "P-glycoprotein [1]; co-incubated with digoxin, every gut sac, Fig 7, Fig 9", "result": "decreased"}, {"measurement": "Effect on P-glycoprotein (inducer / revulsant)", "setting": "P-glycoprotein [1]; deduced from decreased digoxin level in rat gut sacs", "result": "potential revulsant of P-gp"}, {"measurement": "Effect on the level (Papp) of aconitine in the rat gut sacs", "setting": "everted rat gut sacs [2]; added to high aconitine concentration, all four gut sacs", "result": "P2 value is smaller than the P0 value in each gut sac"}]}
{"molecule": "CCN1C[C@]2(COC)[C@H](O)C[C@H](OC)[C@@]34[C@@H]5C[C@@]6(O)[C@H](OC(=O)c7ccccc7)[C@@H]5[C@@](OC(C)=O)([C@@H]([C@H](OC)[C@H]23)[C@@H]14)[C@@H](O)[C@@H]6OC", "note": "[aconitine]", "values": [{"measurement": "Toxicity to gut sac tissue (glucose serosal/mucosal ratio)", "setting": "everted rat gut sacs [3]", "result": "did not induce toxicity in the gut sac tissue"}, {"measurement": "ER(P2/P0)", "setting": "everted rat gut sacs [2]; colon", "result": 0.4363}, {"measurement": "ER(P1/P0)", "setting": "everted rat gut sacs [2]; colon", "result": 0.6695}, {"measurement": "ER(P2/P0)", "setting": "everted rat gut sacs [2]; duodenum", "result": 0.3602}, {"measurement": "ER(P1/P0)", "setting": "everted rat gut sacs [2]; duodenum", "result": 0.2703}, {"measurement": "ER(P2/P0)", "setting": "everted rat gut sacs [2]; ileum", "result": 0.3464}, {"measurement": "ER(P1/P0)", "setting": "everted rat gut sacs [2]; ileum", "result": 0.3615}, {"measurement": "ER(P2/P0)", "setting": "everted rat gut sacs [2]; jejunum", "result": 0.3979}, {"measurement": "ER(P1/P0)", "setting": "everted rat gut sacs [2]; jejunum", "result": 0.3942}, {"measurement": "Stability RSD%", "setting": "[4]; High concentration QC samples", "result": 10.04, "unit": "%"}, {"measurement": "Stability RSD%", "setting": "[4]; Low concentration QC samples", "result": 2.448, "unit": "%"}, {"measurement": "Stability RSD%", "setting": "[4]; [9]", "result": 11.72, "unit": "%"}, {"measurement": "Stability of QC samples", "setting": "[4]", "result": "stable for 48 h"}, {"measurement": "Solubility in solvents", "setting": "[5]", "result": "able to be dissolved in methanol"}, {"measurement": "P-glycoprotein substrate / inhibitor status", "setting": "P-glycoprotein [6]", "result": "both a substrate and an inhibitor of P-glycoprotein"}, {"measurement": "Fitting equation (zero-level; slope = absorption rate constant ka)", "setting": "everted rat gut sacs [7]; colon, aconitine 75 ng/mL", "result": "Q = 0.01937t"}, {"measurement": "Fitting equation (zero-level; slope = absorption rate constant ka)", "setting": "everted rat gut sacs [7]; colon, aconitine 750 ng/mL", "result": "Q = 0.1302t"}, {"measurement": "Fitting equation (zero-level; slope = absorption rate constant ka)", "setting": "everted rat gut sacs [7]; colon, aconitine 7500 ng/mL", "result": "Q = 2.000t"}, {"measurement": "Fitting equation (zero-level; slope = absorption rate constant ka)", "setting": "everted rat gut sacs [7]; duodenum, aconitine 75 ng/mL", "result": "Q = 0.02546t"}, {"measurement": "Fitting equation (zero-level; slope = absorption rate constant ka)", "setting": "everted rat gut sacs [7]; duodenum, aconitine 750 ng/mL", "result": "Q = 0.05406t"}, {"measurement": "Fitting equation (zero-level; slope = absorption rate constant ka)", "setting": "everted rat gut sacs [7]; duodenum, aconitine 7500 ng/mL", "result": "Q = 3.528t"}, {"measurement": "Fitting equation (zero-level; slope = absorption rate constant ka)", "setting": "everted rat gut sacs [7]; ileum, aconitine 75 ng/mL", "result": "Q = 0.01294t"}, {"measurement": "Fitting equation (zero-level; slope = absorption rate constant ka)", "setting": "everted rat gut sacs [7]; ileum, aconitine 750 ng/mL", "result": "Q = 0.2906t"}, {"measurement": "Fitting equation (zero-level; slope = absorption rate constant ka)", "setting": "everted rat gut sacs [7]; ileum, aconitine 7500 ng/mL", "result": "Q = 2.529t"}, {"measurement": "Fitting equation (zero-level; slope = absorption rate constant ka)", "setting": "everted rat gut sacs [7]; jejunum, aconitine 75 ng/mL", "result": "Q = 0.02977t"}, {"measurement": "Fitting equation (zero-level; slope = absorption rate constant ka)", "setting": "everted rat gut sacs [7]; jejunum, aconitine 750 ng/mL", "result": "Q = 0.2028t"}, {"measurement": "Fitting equation (zero-level; slope = absorption rate constant ka)", "setting": "everted rat gut sacs [7]; jejunum, aconitine 7500 ng/mL", "result": "Q = 3.2531t"}, {"measurement": "P-glycoprotein substrate status", "setting": "P-glycoprotein [8]", "result": "potential substrate of P-glycoprotein"}]}
{"molecule": "C[C@H]1O[C@@H](O[C@H]2[C@@H](O)C[C@H](O[C@H]3[C@@H](O)C[C@H](O[C@H]4CC[C@@]5(C)[C@H](CC[C@@H]6[C@@H]5C[C@@H](O)[C@]5(C)[C@@H](C7=CC(=O)OC7)CC[C@]65O)C4)O[C@@H]3C)O[C@@H]2C)C[C@H](O)[C@@H]1O", "note": "[digoxin, reference compound]", "values": [{"measurement": "Stability RSD%", "setting": "[4]; High concentration QC samples", "result": 1.336, "unit": "%"}, {"measurement": "Stability RSD%", "setting": "[4]; Low concentration QC samples", "result": 2.036, "unit": "%"}, {"measurement": "Stability RSD%", "setting": "[4]; [9]", "result": 4.913, "unit": "%"}, {"measurement": "Stability of QC samples", "setting": "[4]", "result": "stable for 48 h"}, {"measurement": "Solubility in solvents", "setting": "[5]", "result": "only could be dissolved in dimethyl sulfoxide (DMSO) among the tested solvents"}]}
